Laboratory results taken from US20240317743A1, “Solid Forms of BCL-2 Inhibitors, Method of Preparation, and Use Thereof” (BeiGene, Ltd., priority 2021, published 2024).
Converted amounts (≈) assume the structure as drawn.

Tests used:
Assay type in all cases: physicochemical
[1] = DVS (Method A) water uptake / hygroscopicity; conditions: 25° C./80% RH
Description: DVS of the obtained forms in the present disclosure was measured via an SMS (Surface Measurement Systems) DVS Intrinsic, without special instructions (Method A). The relative humidity at 25° C. was calibrated against deliquescence point of LiCl, Mg(NO3)2 and KCl. Parameters for the DVS test are listed as follows. [table]

[2] = Solid form solubility, concentration by HPLC at 24 hours
Description: The solubility of Compound 1 in different physical forms was tested in water, 0.1 N HCl, pH 4.5 acetate buffer and pH 6.8 phosphate buffer. At 24 hours of time point, the concentration of Compound 1 was detected by HPLC.

[3] = Long term and accelerated physical and chemical stability test, impurities by HPLC
Description: Long term and accelerated stability studies were conducted in different physical forms of Compound 1, by storing the samples at 25±2° C./60±5% RH and 40±2° C./75±5% RH conditions for up to 6 months. And, the content of the total impurities of each sample was tested by HPLC.

[4] = Solid form stability of Form B: slurry or shaking in acetone/H2O system at 50° C., XRPD
Description: Evaluation of solid form stability of Form B was performed in acetone/H2O system at 50° C. About 2 mg of Form B sample was used to slurry or shake in the acetone/H2O (1:9, v/v) and H2O solution (saturated by amorphous sample).

[5] = Physical stability: storage under humidity/temperature, form checked by XRPD
Description: To evaluate the physicochemical stability, store 1˜3 mg of Forms B, S, M, R, F, H and N samples were stored under 25° C./60% RH or 40° C./75% RH conditions for one week (unsealed) or 80° C. condition for 24 hrs (sealed).

[6] = Storage at RT, form checked by XRPD overlay; conditions: RT, ~3 days
Description: Form K was speculated as a methyl acetate solvate.
Thus, Form L was speculated as a metastable anhydrate/hydrate which could be de-solvated from the wet cake from the solvent system.
(peak) before decomposition (FIG. 16B). According to the integration of ^1H NMR result (FIG. 16C), the theoretical weight of chlorobenzene was calculated as 9.8%, which matched with the TGA weight loss. […] After heating the sample to 140° C., more diffraction peaks disappeared. Combined with the TGA, ^1H NMR data and heating experiment, Form P was speculated as a chlorobenzene solvate.

CC(C)c1ccccc1[C@@H]1CCCN1C1CC2(CCN(c3ccc(C(=O)NS(=O)(=O)c4ccc(NCC5CCC(C)(O)CC5)c([N+](=O)[O-])c4)c(Oc4cnc5[nH]ccc5c4)c3)CC2)C1 (stereo partly drawn) [Compound 1 amorphous, 2-((1H-pyrrolo[2,3-b]pyridin-5-yl)oxy)-N-((4-((((1r,4r)-4-hydroxy-4-methylcyclohexyl)methyl)amino)-3-nitrophenyl)sulfonyl)-4-(2-((S)-2-(2-isopropylphenyl)pyrrolidin-1-yl)-7-azaspiro[3.5]nonan-7-yl)benzamide]
water uptake ([1]; listed as amorphous form): 1.8%
solubility ([2]; 0.1 N HCl): 35.30 µg/mL (≈ 39.7 µM)
solubility ([2]; pH 4.5 acetate buffer): no Compound 1 was detected
solubility ([2]; pH 6.8 phosphate buffer): no Compound 1 was detected
solubility ([2]; water): no Compound 1 was detected
change of chemical purity ([3]; 25±2° C./60±5% RH and 40±2° C./75±5% RH, up to 6 months): reduced significantly
total content of impurities ([3]; after 6 months at 40±2° C./75±5% RH): 4.2%
total content of impurities ([3]; before storage (initial)): 2.10%

CC(C)c1ccccc1[C@@H]1CCCN1C1CC2(CCN(c3ccc(C(=O)NS(=O)(=O)c4ccc(NCC5CCC(C)(O)CC5)c([N+](=O)[O-])c4)c(Oc4cnc5[nH]ccc5c4)c3)CC2)C1 (stereo partly drawn) [Form B, 2-((1H-pyrrolo[2,3-b]pyridin-5-yl)oxy)-N-((4-((((1r,4r)-4-hydroxy-4-methylcyclohexyl)methyl)amino)-3-nitrophenyl)sulfonyl)-4-(2-((S)-2-(2-isopropylphenyl)pyrrolidin-1-yl)-7-azaspiro[3.5]nonan-7-yl)benzamide]
crystalline status (XRPD overlay) ([4]; shaking in H2O, about 4 hours): no form change was observed
crystalline status (XRPD overlay) ([4]; shaking in H2O, about 4 days): no form change was observed
crystalline status (XRPD overlay) ([4]; shaking in acetone/H2O (1:9, v/v), about 4 hours): no form change was observed
crystalline status (XRPD overlay) ([4]; shaking in acetone/H2O (1:9, v/v), about 4 days): no form change was observed
crystalline status (XRPD overlay) ([4]; slurrying in H2O, about 4 hrs): no form change was observed
crystalline status (XRPD overlay) ([4]; slurrying in H2O, about 4 days): a decrease of crystallinity was observed
crystalline status (XRPD overlay) ([4]; slurrying in acetone/H2O (1:9, v/v), about 4 days): a decrease of crystallinity was observed
hygroscopicity [1]: slight hygroscopicity
water uptake [1]: 0.9%
form change (XRPD overlay) ([5]; 25° C./60% RH, one week, unsealed): no form change
form change (XRPD overlay) ([5]; 40° C./75% RH, one week, unsealed): no form change
form change (XRPD overlay) ([5]; 80° C., sealed, 24 hrs): no form change

CC(C)c1ccccc1[C@@H]1CCCN1C1CC2(CCN(c3ccc(C(=O)NS(=O)(=O)c4ccc(NCC5CCC(C)(O)CC5)c([N+](=O)[O-])c4)c(Oc4cnc5[nH]ccc5c4)c3)CC2)C1 (stereo partly drawn) [Form T, 2-((1H-pyrrolo[2,3-b]pyridin-5-yl)oxy)-N-((4-((((1r,4r)-4-hydroxy-4-methylcyclohexyl)methyl)amino)-3-nitrophenyl)sulfonyl)-4-(2-((S)-2-(2-isopropylphenyl)pyrrolidin-1-yl)-7-azaspiro[3.5]nonan-7-yl)benzamide]
form change on storage [6]: convert back to Form N
